Key:
Format in all cases: cell-based
[1] = test system: Primary human subcutaneous adipocytes; experiment: Glucose uptake in human subcutaneous adipocytes, insulin sensitive model
Description: Primary human subcutaneous adipocytes (Zen Bio, Research Triangle Park, N.C.) were differentiated for two weeks prior to treatment. Cells were treated with indicated compounds diluted in (dimethyl-sulfoxide) DMSO in serum free medium for 24 hours in triplicate. After 24 hours, media was exchanged for assay buffer and the compounds were added again but in the presence of approximately 1 nM insulin. Glucose uptake was initiated with the addition of a cocktail containing 2-deoxyglucose and ^3H-2-deoxyglucose and allowed to incubate for 2 hours. Cells were washed, lysed and glucose uptake was measured as counts per well. As an assay control, 100 nM of insulin was used during the 2 hours of glucose uptake. […] Statistical changes in glucose uptake were determined by way ANOVA and compared to DMSO.

[2] = test system: Primary human subcutaneous adipocytes; experiment: Glucose uptake in human subcutaneous adipocytes, insulin resistant model
Description: As described above, primary human subcutaneous adipocytes were differentiated for two weeks prior to treatment. To induce an insulin resistant state, cells were treated in serum free Dulbecco's Modified Eagle Medium (high glucose) and […] for 24 hours. Cells were simultaneously treated with compounds diluted in DMSO for 24 hours. As described above, after 24 hours, media was exchanged for assay buffer and the compounds were added again but in the presence of approximately 1 nM insulin. Cells were washed and lysed after 2 hours and glucose uptake was measured. […] Statistical changes in glucose uptake were determined by way ANOVA and compared to DMSO.

[3] = test system: Human Peripheral Blood Monocytes (PBMCs); experiment: Cytokine release from human PBMCs; settings: 100 μM, LPS, 24 hours
Description: Human donor blood (8 mL) was collected in sodium citrate CPT tubes and centrifuged at 1,600×g for 20 minutes at room temperature. […] PBMCs samples were centrifuged at 400×g for 10 minutes at 10° C. […] PBMCs were filtered through a 70 micron mesh to remove any cellular debris. […] PBMCs in a 96-well plate were rested for 30 minutes in a 37° C., 5% CO2 incubator, then subsequently treated with 10 μl of indicated compound. After 2 hours 10 μL of LPS (O111:B4) 1 mg/mL was added to test wells. After 24 hours of incubation at 37° C., 5% CO2, 100 μL of cell supernatant was collected and transferred to a 96-well plate (non-tissue treated, flat bottom). The plate was centrifuged at 350×g for 5 minutes at room temperature, and then the clear supernatant transferred to a new 96-well plate (non-tissue treated, flat bottom). The remaining cells were tested for viability using CellTiter-Glo® Luminescent Cell Viability Assay (Promega). The supernatant was analyzed for TNFα, IL-6 and IL-1β (kit LXSAHM-03; R&D Systems), using Luminex Immunoassay Technology (MAGPIX System). Cytokine levels of LPS treated DMSO control samples were set to 100%, and compound treated samples were expressed relative to this (Table 13).

[4] = test system: Caco-2 colonocytes; experiment: Human Caco-2 barrier integrity assay (TEER); settings: 48 hours
Description: Caco-2 colonocytes were maintained at 37° C. and 5% CO2 in Dulbecco's Modified Eagle Medium (DMEM) and supplemented with 10% FBS, 1% NEAA, 1% penicillin-streptomycin. At 70-80% confluency, cells were trypsinized and seeded in 0.4 cm^2 transwell collagen I coated membranes with supplemented DMEM in both apical and basolateral compartments. Cells were seeded at a density of 200,000 cells per well and maintained for 10 days to form a polarized barrier with a TransEpithelial Electrial Resistance (TEER) reading above 1000Ω. On the first day of the assay, initial TEER readings were taken and cytokines were added to the basolateral media (50 ng/mL TNFα, 25 ng/mL IFNγ and 10 ng/mL IL-1β) to reduce barrier integrity while compounds diluted in (dimethylsulfoxide) DMSO were added to the apical media in triplicate. After 48 hours, TEER readings were taken again and viability was measured by CellTiter 96® AQueous One Solution Cell Proliferation Assay (Promega). The percent change in TEER over the 48 hours was determined and normalized to the 0.1% DMSO control (Table 6).

Which insulin-mediated glucose uptake ([1]; insulin sensitive model, compared to DMSO) does the source give for C[C@@H](O)CC(=O)O [(R)-BHB] here?
Its insulin-mediated glucose uptake is “significantly enhanced insulin-mediated glucose uptake”.

What about the insulin-mediated glucose uptake ([2]; insulin-resistant like state, compared to DMSO) of the same molecule?
Its insulin-mediated glucose uptake is “significantly enhanced insulin-mediated glucose uptake”.

Which “IL6 % DMSO control” value [3] does the source give for O=C[C@@H](O)[C@H](O)[C@H](O)CO [arabinose] here?
The value was “+ ((+) 50%≥ <90% DMSO)”.

And the “ILβ % DMSO control” value [3]?
The value was “= ((=) 90%≥ <110% DMSO)”.

What about the “TNFα % of DMSO control” value [3] of the same molecule?
The value was “+ ((+) 50%≥ <90% DMSO)”.

And the “Insulin Sensitive % DMSO (glucose uptake)” value ([1]; 0.5 mM)?
The value was “= (50%> ≤110%: =)”.

What about the “Insulin Sensitive % DMSO (glucose uptake)” value ([1]; 1 mM) of the same molecule?
Its value is “++ (140%≥ ≤200%: ++)”.

What about the “Insulin Resistant % DMSO (glucose uptake)” value ([2]; 0.5 mM) of the same molecule?
Its value is “= (50%> ≤110%: =)”.

What about the “Insulin Resistant % DMSO (glucose uptake)” value ([2]; 1 mM) of the same molecule?
Its value is “= (50%> ≤110%: =)”.

Which results are given for C[C@@H](O)CC(=O)O [(R) BHB]?
Insulin Sensitive % DMSO (glucose uptake) ([1]; 2 mM): ++ (140%≥ ≤200%: ++); Insulin Sensitive % DMSO (glucose uptake) ([1]; 20 mM): ++ (140%≥ ≤200%: ++); Insulin Resistant % DMSO (glucose uptake) ([2]; 2 mM): + (110%> ≤140%: +); Insulin Resistant % DMSO (glucose uptake) ([2]; 20 mM): = (50%> ≤110%: =)

How did the “IL6 % DMSO control” value [3] turn out when CC(O)CC(=O)O (stereo not drawn) [BHB, β-hydroxybutyrate] was run?
The value was “= ((=) 90%≥ <110% DMSO)”.

And the “ILβ % DMSO control” value [3]?
The value was “− ((−) ≥110% DMSO;)”.

What about the “TNFα % of DMSO control” value [3] of the same molecule?
The value was “− ((−) ≥110% DMSO;)”.

What about the “% Change in TEER from DMSO” value ([4]; 200 μM + cytokines) of the same molecule?
The value was “+ (125%> ≤150%: +)”.

What about the “% Change in TEER from DMSO” value ([4]; 2 mM + cytokines) of the same molecule?
The value was “− (≤125%: −)”.

Source: patent US10953027B2, “Active agents and methods of their use for the treatment of metabolic disorders and nonalcoholic fatty liver disease” (Flagship Pioneering Innovations V, Inc., priority 2018, dated 2021)
